Laboratory results as given in publication PMC3293410 (Nature Communications, 2012).
Entries after “also recorded” stand apart in the source; their conditions may differ.

T1: β-catenin-BCL9 interaction (GST-ARD / His-HD2) (Mus musculus, UniProt Q02248)
T1 sequence (Q02248 134-671): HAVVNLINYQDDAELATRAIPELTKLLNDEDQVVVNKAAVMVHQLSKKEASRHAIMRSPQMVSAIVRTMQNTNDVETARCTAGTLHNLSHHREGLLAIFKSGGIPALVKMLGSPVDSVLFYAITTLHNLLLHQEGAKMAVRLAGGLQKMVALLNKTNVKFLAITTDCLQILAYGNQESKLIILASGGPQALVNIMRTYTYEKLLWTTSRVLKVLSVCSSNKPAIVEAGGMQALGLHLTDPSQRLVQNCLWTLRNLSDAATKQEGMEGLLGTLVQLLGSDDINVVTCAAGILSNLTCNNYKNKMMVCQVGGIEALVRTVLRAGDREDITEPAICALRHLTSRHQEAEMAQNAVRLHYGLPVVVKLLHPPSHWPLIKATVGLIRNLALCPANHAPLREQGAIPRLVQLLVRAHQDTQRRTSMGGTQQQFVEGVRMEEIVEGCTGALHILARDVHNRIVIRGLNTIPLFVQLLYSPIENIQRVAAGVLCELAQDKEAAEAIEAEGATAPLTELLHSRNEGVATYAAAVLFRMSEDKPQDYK


What was measured:
[1] = target: T1, β-catenin-BCL9 interaction (GST-ARD / His-HD2); assay: ELISA-based assay of His-HD2 binding to plate-bound GST-ARD; design: species or system human; conditions: for competition of His-HD2 binding to plate-bound GST-ARD by soluble protein: increasing concentrations, chymotrypsin 0.5–20 μM
[2] = tested on: HeLa, SW480 and HCT116 cells; assay: Cytotoxicity assay; assay type: cell-based, human; conditions: 12 hours, various concentrations

| Molecule | behaviour in the HD2-ARD assay [1] | cell toxicity [2] | competition of His-HD2 binding to plate-bound GST-ARD by soluble protein [1] |
| --- | --- | --- | --- |
| CC(C)c1c(O)ccc2c1CC[C@H]1C(C)(C)CCC[C@]21C [totarol] | nonspecifically precipitated the proteins | highly toxic | – |
| chymotrypsin [reference compound] | – | – | no effect; also recorded: not affected |
| ARD: untagged soluble β-catenin Armadillo repeat domain (protein, left off: GST, end not stated, kept) HAVVNLINYQDDAELATRAIPELTKLLNDEDQVVVNKAAVMVHQLSKKEASRHAIMRSPQMVSAIVRTMQNTNDVETARCTAGTLHNLSHHREGLLAIFKSGGIPALVKMLGSPVDSVLFYAITTLHNLLLHQEGAKMAVRLAGGLQKMVALLNKTNVKFLAITTDCLQILAYGNQESKLIILASGGPQALVNIMRTYTYEKLLWTTSRVLKVLSVCSSNKPAIVEAGGMQALGLHLTDPSQRLVQNCLWTLRNLSDAATKQEGMEGLLGTLVQLLGSDDINVVTCAAGILSNLTCNNYKNKMMVCQVGGIEALVRTVLRAGDREDITEPAICALRHLTSRHQEAEMAQNAVRLHYGLPVVVKLLHPPSHWPLIKATVGLIRNLALCPANHAPLREQGAIPRLVQLLVRAHQDTQRRTSMGGTQQQFVEGVRMEEIVEGCTGALHILARDVHNRIVIRGLNTIPLFVQLLYSPIENIQRVAAGVLCELAQDKEAAEAIEAEGATAPLTELLHSRNEGVATYAAAVLFRMSEDKPQDYK | – | – | dose-dependent saturable inhibition |
